Data as given in US20240239854A1, “ANTIMICROBIAL PEPTIDES AND MODIFICATIONS THEREOF” (Donald Danforth Plant Science Center, priority 2022, published 2024).
In brackets after ≈: the same amount, converted by molar mass. Positions of bridges follow the written chain, without caps; N, C: chain ends. Residues, ends and D or L forms follow the SMILES beside them.

Experiments:
B. cinerea [1] = assay: Semi-in planta drop inoculation assay on detached leaves of N. benthamiana, gray mold (Example 4); assay type: in vivo; details: for Reduction of gray mold symptoms at 3 and 6 μM: peptide 3 μM and 6 μM
B. cinerea [2] = system: B. cinerea

CC[C@H](C)[C@H](NC(=O)[C@H](CCCNC(=N)N)NC(=O)[C@H](CS)NC(=O)[C@H](CCCNC(=N)N)NC(=O)CNC(=O)[C@@H](N)CO)C(=O)N[C@@H](CC(C)C)C(=O)N[C@@H](Cc1ccccc1)C(=O)N[C@@H](CCCNC(=N)N)C(=O)N[C@@H](CS)C(=O)N[C@@H](Cc1ccccc1)C(=O)N[C@@H](CS)C(=O)N[C@H](C(=O)N[C@@H](CCCCN)C(=O)N[C@@H](CC(N)=O)C(=O)N[C@@H](CS)C(N)=O)[C@@H](C)O [GMA1C_V1] (H-SGRCRILFRCFCTKNC-NH2; N-terminus assumed)
Reduction of gray mold symptoms at 3 and 6 μM (B. cinerea [1]; drop inoculation assay): failed to reduce disease symptoms

CC[C@H](C)[C@@H]1NC(=O)[C@H](CCCNC(=N)N)NC(=O)[C@@H](NC(=O)[C@H](CCCNC(=N)N)NC(=O)CNC(=O)[C@@H](N)CO)CSSC[C@@H](C(N)=O)NC(=O)[C@H](CC(N)=O)NC(=O)[C@H](CCCCN)NC(=O)[C@H]([C@@H](C)O)NC(=O)[C@H](Cc2c[nH]c3ccccc23)NC(=O)[C@H](Cc2ccccc2)NC(=O)[C@H](Cc2c[nH]c3ccccc23)NC(=O)[C@H](CCCNC(=N)N)NC(=O)[C@H](Cc2ccccc2)NC(=O)[C@H](CC(C)C)NC1=O [GMA1C_V2] (H-SGRCRILFRWFWTKNC-NH2; disulfide 4-16; N-terminus assumed)
Reduction of gray mold symptoms at 1.5 μM (B. cinerea [1]; drop inoculation assay, peptide 1.5 μM): more effective than GMA1C_V1 | Reduction of gray mold symptoms at 3 and 6 μM (B. cinerea [1]; drop inoculation assay): completely abrogated gray mold symptoms | MIC (μM) SFM (Botrytis cinerea T-4; Table 18, SFM): 1.5 to 3 µM | MIC (μM) (SFM + 2 mM CaCl2) (Botrytis cinerea T-4; Table 18, SFM + 2 mM CaCl2): 3 µM | MIC (μM) (SFM + 100 mM KCl) (Botrytis cinerea T-4; Table 18, SFM + 100 mM KCl): >12 µM | MIC (μM) (SFM + 100 mM NaCl) (Botrytis cinerea T-4; Table 18, SFM + 100 mM NaCl): 3 µM

C[C@@H](O)[C@H](NC(=O)[C@H](CS)NC(=O)[C@H](Cc1ccccc1)NC(=O)[C@H](CS)NC(=O)[C@H](CCCNC(=N)N)NC(=O)[C@H](CCCNC(=N)N)NC(=O)[C@H](CCCNC(=N)N)NC(=O)[C@H](Cc1ccccc1)NC(=O)CNC(=O)[C@H](CCCNC(=N)N)NC(=O)[C@H](CS)NC(=O)[C@H](CCCNC(=N)N)NC(=O)CN)C(=O)N[C@H](C(=O)N[C@@H](Cc1c[nH]cn1)C(=O)N[C@@H](CS)C(N)=O)[C@@H](C)O [GMA4AC] (H-GRCRGFRRRCFCTTHC-NH2; N-terminus and C-terminus assumed)
MIC (μM) Fusarium graminearum (F. graminearum): 6 µM (≈ 11.8 µg/mL)

CC[C@H](C)[C@H](NC(=O)[C@H](CCCNC(=N)N)NC(=O)[C@@H](NC(=O)[C@H](Cc1c[nH]c2ccccc12)NC(=O)[C@H](Cc1ccccc1)NC(=O)[C@H](Cc1c[nH]c2ccccc12)NC(=O)[C@H](CCCNC(=N)N)NC(=O)[C@H](CCCNC(=N)N)NC(=O)[C@H](CCCNC(=N)N)NC(=O)[C@H](Cc1ccccc1)NC(=O)CNC(=O)[C@H](CCCCN)NC(=O)[C@H](CS)NC(=O)[C@H](CCCNC(=N)N)NC(=O)CNC(=O)CN)[C@@H](C)O)C(=O)N[C@@H](CS)C(N)=O [GMA4C_V6A] (H-GGRCKGFRRRWFWTRIC-NH2; N-terminus assumed)
B. cinerea MIC (B. cinerea [2]): 0.75 µM | MIC (μM) Botrytis cinerea (B. cinerea [2]): 0.75 µM (≈ 1.64 µg/mL) | MIC Values (μM) against B. cinerea (B. cinerea [2]): 0.75 µM (≈ 1.64 µg/mL) | SFM + 2 mM CaCl2 MIC (B. cinerea [2]): 3 to 6 µM | SFM + 100 mM KCl MIC (B. cinerea [2]): 1.5 to 3 µM | SFM + 100 mM NaCl MIC (B. cinerea [2]): 0.75 to 1.5 µM | SFM MIC (B. cinerea [2]): 1.5 µM | Antifungal activity relative to the wild-type GMA4C_AC control (B. cinerea [2]; in vitro, low cationic conditions, B. cinerea): four-fold increase

CC(C)C[C@H](NC(=O)[C@H](CS)NC(=O)[C@H](C)NC(=O)CN)C(=O)N[C@@H](CCCCN)C(=O)N[C@@H](CC(N)=O)C(=O)N[C@@H](CCCNC(=N)N)C(=O)N[C@@H](Cc1c[nH]cn1)C(=O)N[C@@H](CO)C(=O)N[C@@H](CCCCN)C(=O)N[C@@H](Cc1c[nH]cn1)C(=O)N[C@@H](Cc1ccc(O)cc1)C(=O)NCC(=O)N[C@@H](CS)C(=O)N[C@@H](Cc1ccc(O)cc1)C(=O)N[C@@H](CS)C(=O)N[C@@H](Cc1ccc(O)cc1)C(=O)N[C@@H](Cc1ccc(O)cc1)C(=O)N[C@@H](CCCNC(=N)N)C(=O)N[C@@H](Cc1c[nH]cn1)C(=O)N[C@@H](CS)C(=O)N[C@@H](Cc1ccc(O)cc1)C(N)=O [GMAOe1C_WT] (H-GACLKNRHSKHYGCYCYYRHCY-NH2; N-terminus assumed)
Reduction of gray mold disease symptoms (lesion sizes) (B. cinerea [1]; detached N. benthamiana leaves, peptide 1.5, 3 and 6 μM, 48 h after inoculation): only effective at 6 μM
